# Entries after “also recorded” stand apart in the source; their conditions may differ.
# How the values were obtained:
# carbonic anhydrase [1] = biological target: T1, carbonic anhydrase (Bos taurus, UniProt P00921); test: Carbonic anhydrase (CA) assay; assay type: biochemical; details: bovine enzyme, p-nitrophenyl acetate substrate, pH 7.6, 25°C; for IC50: read-out: Carbonic anhydrase IC50 ± SEM
# T1 construct: purchased Sigma-Aldrich
# carbonic anhydrase [2] = biological target: T1, carbonic anhydrase; test: Kinetic analysis (Lineweaver-Burk) of carbonic anhydrase inhibition; assay type: biochemical, bovine
# Method: CA inhibition has been determined using some reported methods with a few modifications. […] In brief, 120 microliters of 50 mM Tris-Sulfate buffer (with a pH 7.6 comprising 0.1 mM ZnCl2), twenty μL of (50 U) bovine enzyme, and 20 μL of inhibitor per well makes the reaction mixture. Mixture contents were mixed well before preincubation for ten minutes at 25°C. Para-nitrophenyl acetate substrate (6 mM stock solution by using <5% acetonitrile present in buffer and has been used fresh each time) and forty microliters were taken I each well to reach 0.6 mM concentration per well. The volume of the reaction mixture was diluted to 200 μL. Contents were well mixed after thirty-minute incubation at 25°C, and absorbance results were determined at 348 nm with a microplate reader (SpectraMax ABS, USA). Standard used was acetazolamide. Experiments were performed in triplicate with each concentration. GraphPad Prism 5.0 (GraphPad, San Diego, CA, USA) has been used to calculate IC50 by nonlinear regression. Inhibition (%) = [(B − S)/B] × 100, where S and B are the absorbances of the samples and blank.
# To determine the kinetic parameters of compound 3c, a sequence of experiments have been done. Compound 3c was selected on the basis of IC50 value which was used at different concentrations (0.0, 7.1, 14.2, and 28.4 μM, respectively); the substrate (p-nitrophenyl acetate) concentrations were varied (2, 1, 0.5, 0.25, 0.125, and 0.0625 mM). Other all experimental conditions were just similar as described in the carbonic anhydrase assay segment. The maximum initial velocity has been measured using the starting linear part of absorbance values up to ten minutes at a 1-minute interval. Plots of Lineweaver–Burk on graph between inverse of velocities (1/V) and inverse of concentration of substrate 1/[S] mM^−1 were used in order to find enzyme inhibition type. EI dissociation constant Ki was found by the secondary plot of concentrations of inhibitors versus 1/V.
# [3] = test system: human keratinocyte (HaCaT) cells; test: Cell viability assay (MTT) using HaCaT; assay type: cell-based
# Method: (§1) The experiment for cell viability studies using MTT (3-(4,5-dimethylthiazol-2yl)-2,5-diphenyltetrazolium bromide) setup has been done to find cytotoxic effects of target compounds. The human keratinocyte (HaCaT) and MCF-7 were cultivated separately in 96-well plates (CGP, gamma sterilized, SPL Korea) with use of complete DMEM consisting of ten percent fetal bovine serum and one percent antibiotics. 5∗10^4 cells per well were incubated for 24 hours before their exposure to a series of dilutions of target derivatives. The analogue 3c was solubilized in DMSO, and DMEM was used for dilution to achieve final concentrations 0, 125, and 250 μM. Then, in the presence of test compounds, cells were incubated again for twenty-four hours at 37 C with 5% carbon dioxide. Now, through the MTT setup, absorbance values at 570 nm were determined by ELISA reader and each experiment was repeated thrice. All data was shown in a mean ± standard deviation pattern, and Student's t-tests were performed to analyze significance of the data. Statistical significance has been assumed (p < 0.005).
# MCF-7 cells = test: Cell viability assay (MTT) using MCF-7; assay type: cell-based, human; details: MCF-7, 24 h, 0, 125 and 250 μM
# Method: as §1
# T1 sequence (P00921 whole entry): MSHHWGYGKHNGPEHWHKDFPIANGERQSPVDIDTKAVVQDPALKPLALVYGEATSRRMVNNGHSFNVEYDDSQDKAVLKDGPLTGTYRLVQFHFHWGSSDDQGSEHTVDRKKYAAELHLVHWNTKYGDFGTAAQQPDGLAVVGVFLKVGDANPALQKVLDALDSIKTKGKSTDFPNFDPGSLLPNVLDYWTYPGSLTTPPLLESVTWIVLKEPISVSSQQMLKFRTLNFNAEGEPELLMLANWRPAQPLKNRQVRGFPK
melting point [°C],Carbonic anhydrase IC50 ± SEM (carbonic anhydrase [1]),IC50 (carbonic anhydrase [1]) [µM],SMILES,also measured
176 to 178,No inhibition,,"O=S(=O)(N/N=C/c1cccnc1)c1ccccc1 [Compound 3a, (E)-N′-(pyridin-3-ylmethylene)benzenesulfonohydrazide]",
173 to 176,No inhibition,,"Cc1cc(C)c(S(=O)(=O)N/N=C/c2cccnc2)c(C)c1 [Compound 3b, (E)-2,4,6-trimethyl-N′-(pyridin-3-ylmethylene)benzenesulfonohydrazide]",
168 to 171,,0.84 ± 0.12,"Cc1ccc(S(=O)(=O)N/N=C/c2cccnc2)cc1 [Compound 3c, (E)-4-methyl-N′-(pyridin-3-ylmethylene)benzenesulfonohydrazide]","Vmax (carbonic anhydrase [2]; 3c 7.1 μM): 0.01006 ΔA/min; Vmax (carbonic anhydrase [2]; 3c 14.2 μM): 0.004552 ΔA/min; Vmax (carbonic anhydrase [2]; 3c 28.4 μM): 0.002293 ΔA/min; Inhibition type (carbonic anhydrase [2]; Lineweaver-Burk plots): noncompetitive mode of inhibition; also recorded: noncompetitively; Ki (carbonic anhydrase [2]; secondary plot of Lineweaver-Burk slope versus 3c concentration, read-out: Ki (EI dissociation constant)): 8.6 µM; Cytotoxic effects, HaCaT compared with MCF-7 ([3]; HaCaT versus MCF-7, 250 μM): smaller in case of human keratinocyte (HaCaT) at concentration 250 μM than MCF-7; also recorded: less cytotoxic effects on human keratinocyte cell lines (HaCaT) compared to breast cancer cell lines MCF-7; Cytotoxicity (cell viability) ([3]; HaCaT, 24 h, 0, 125 and 250 μM): caused cytotoxicity in a concentration-dependent manner; Cytotoxicity (cell viability) (MCF-7 cells): caused cytotoxicity in a concentration-dependent manner"
181 to 184,No inhibition,,"CC(=O)Nc1ccc(S(=O)(=O)N/N=C/c2cccnc2)cc1 [Compound 3d, (E)-N-(4-((2-(pyridin-3-ylmethylene)hydrazinyl)sulfonyl)phenyl)acetamide]",
160 to 164,,18.9 ± 0.85,"Cc1cc(C)c(S(=O)(=O)N/N=C/c2ccncc2)c(C)c1 [Compound 3e, (E)-2,4,6-trimethyl-N′-(pyridin-4-ylmethylene)benzenesulfonohydrazide]",
148 to 152,No inhibition,,"Cc1ccc(S(=O)(=O)N/N=C/c2ccncc2)cc1 [Compound 3f, (E)-4-methyl-N′-(pyridin-4-ylmethylene)benzenesulfonohydrazide]",
159 to 161,,59.1 ± 1.68,"Cc1ccc(S(=O)(=O)N/N=C/c2ccccn2)cc1 [Compound 3g, (E)-4-methyl-N′-(pyridin-2-ylmethylene)benzenesulfonohydrazide]",
156 to 158,,31.8 ± 1.07,"O=S(=O)(N/N=C/c1ccc[nH]1)c1ccccc1 [Compound 3h, (E)-N′-((1H-pyrrol-2-yl)methylene)benzenesulfonohydrazide]",
146 to 148,No inhibition,,"Cc1ccc(S(=O)(=O)N/N=C/c2ccc[nH]2)cc1 [Compound 3i, (E)-N′-((1H-pyrrol-2-yl)methylene)-4-methylbenzenesulfonohydrazide]",
176 to 179,No inhibition,,"COc1ccc(S(=O)(=O)N/N=C/c2cc[nH]c2)cc1 [Compound 3j, (E)-N′-((1H-pyrrol-3-yl)methylene)-4-methoxybenzenesulfonohydrazide]",

# — paper PMC7054763, “Sulfonamide-Based Azaheterocyclic Schiff Base Derivatives as Potential Carbonic Anhydrase Inhibitors: Synthesis, Cytotoxicity, and Enzyme Inhibitory Kinetics” (BioMed Research International, 2020)
